{
  "source": "patent US20070154981A1",
  "about": "“Insulin-producing cells derived from stem cells” (THE BOARD of TRUSTEES of the LELAND STANFORD JUNIOR …, priority 2003, published 2007)",
  "system": "human NS cells",
  "experiment": "Insulin content of IPCCs derived from human NS cells, by ELISA",
  "assay_type": "cell-based",
  "from_the_text": "Human NS cells from StemCells Inc. (Palo Alto, Calif.). Until stage 1, cells are maintained in neurospheres as described in Uchida et al, 2000, Proc Natl Acad Sci U S A. 2000 Dec. 19;97(26):14720-5. […]",
  "data": [
    {"smiles": "CC1=C(/C=C/C(C)=C/C=C/C(C)=C/C(=O)O)C(C)(C)CCC1", "note": "[retinoic acid, all-trans-Retinoic acid]", "values": [
      {"measurement": "insulin levels relative to levels found in human pancreatic islets", "setting": "1 micromolar retinoic acid for 6 days, stage 2 IPCCs, ELISA", "value": 0.1, "unit": "%"},
      {"measurement": "insulin production compared with cells cultured with SHH and retinoic acid", "setting": "retinoic acid alone versus SHH and retinoic acid", "value": "higher level of insulin production"}
    ]}
  ]
}
